Assay results published in the NIST ThermoML archive (doi:10.1016/j.jct.2009.06.008).
Where “and” joins values, the source holds several entries; their conditions need not be identical. Identical values can stand only once.

Details: Crystal, Calculated from knudsen effusion weight loss

O=[N+]([O-])c1ccccc1Br [1-bromo-2-nitrobenzene]
Details | vapor or sublimation pressure
275.15 K | 9.5e-05 kPa and 9.4e-05 kPa
277.15 K | 0.000124 kPa and 0.000123 kPa
279.16 K | 0.000164 kPa and 0.000165 kPa
281.17 K | 0.00021 kPa and 0.000212 kPa and 0.000208 kPa
283.17 K | 0.000279 kPa and 0.00028 kPa and 0.000277 kPa
285.17 K | 0.000351 kPa and 0.000353 kPa and 0.00035 kPa
287.21 K | 0.000451 kPa and 0.000459 kPa and 0.000448 kPa
289.17 K | 0.000581 kPa and 0.000592 kPa and 0.000594 kPa
291.14 K | 0.000733 kPa and 0.000729 kPa and 0.000735 kPa
293.14 K | 0.000913 kPa and 0.000939 kPa and 0.000925 kPa
295.16 K | 0.001204 kPa and 0.00121 kPa and 0.001218 kPa

O=[N+]([O-])c1cccc(Br)c1 [1-bromo-3-nitrobenzene]
Details | vapor or sublimation pressure
279.57 K | 0.000143 kPa and 0.000142 kPa and 0.000141 kPa
281.21 K | 0.000184 kPa and 0.000183 kPa and 0.000181 kPa
283.14 K | 0.000238 kPa and 0.000237 kPa and 0.000236 kPa
285.16 K | 0.000299 kPa and 0.000294 kPa and 0.000301 kPa
287.19 K | 0.000398 kPa and 0.000385 kPa and 0.000381 kPa
289.39 K | 0.000507 kPa and 0.000506 kPa and 0.000496 kPa
291.16 K | 0.000649 kPa and 0.00065 kPa and 0.000635 kPa
293.15 K | 0.000817 kPa and 0.000815 kPa and 0.00079 kPa
295.17 K | 0.001067 kPa and 0.001054 kPa and 0.001033 kPa

O=[N+]([O-])c1ccc(Br)cc1 [1-bromo-4-nitrobenzene]
Details | vapor or sublimation pressure
289.15 K | 0.000103 kPa and 0.000101 kPa and 9.9e-05 kPa
291.12 K | 0.000122 kPa and 0.000119 kPa and 0.00012 kPa
293.14 K | 0.00017 kPa and 0.000165 kPa and 0.000161 kPa
295.15 K | 0.000209 kPa and 0.000202 kPa
297.14 K | 0.000255 kPa and 0.000248 kPa
299.15 K | 0.000332 kPa and 0.000337 kPa and 0.000333 kPa
301.13 K | 0.000427 kPa and 0.00041 kPa and 0.000409 kPa
303.14 K | 0.000526 kPa and 0.000537 kPa and 0.00052 kPa
305.14 K | 0.000644 kPa and 0.000653 kPa and 0.000624 kPa
307.14 K | 0.0008 kPa and 0.000809 kPa and 0.000788 kPa
309.15 K | 0.00105 kPa and 0.001036 kPa and 0.00101 kPa
